Laboratory results from US6783949B1, “Processes for determining whether a test substance contains lipases or lipase inhibitors” (Aventis Pharma Deutschland GmbH, priority 1999, dated 2004).
“And” between values parts separate entries of the source, which are not always exact repeats. Identical values can stand only once.

Target: T1, HSL (Rattus norvegicus, UniProt P15304)
T1 construct: The partially purified HSL can be stored at −70° C. for 4 to 6 weeks; from tissue; host or cells: rat epididymal fat cells (male Wistar rats)
T1 sequence (P15304 1-768 isoform P15304-2): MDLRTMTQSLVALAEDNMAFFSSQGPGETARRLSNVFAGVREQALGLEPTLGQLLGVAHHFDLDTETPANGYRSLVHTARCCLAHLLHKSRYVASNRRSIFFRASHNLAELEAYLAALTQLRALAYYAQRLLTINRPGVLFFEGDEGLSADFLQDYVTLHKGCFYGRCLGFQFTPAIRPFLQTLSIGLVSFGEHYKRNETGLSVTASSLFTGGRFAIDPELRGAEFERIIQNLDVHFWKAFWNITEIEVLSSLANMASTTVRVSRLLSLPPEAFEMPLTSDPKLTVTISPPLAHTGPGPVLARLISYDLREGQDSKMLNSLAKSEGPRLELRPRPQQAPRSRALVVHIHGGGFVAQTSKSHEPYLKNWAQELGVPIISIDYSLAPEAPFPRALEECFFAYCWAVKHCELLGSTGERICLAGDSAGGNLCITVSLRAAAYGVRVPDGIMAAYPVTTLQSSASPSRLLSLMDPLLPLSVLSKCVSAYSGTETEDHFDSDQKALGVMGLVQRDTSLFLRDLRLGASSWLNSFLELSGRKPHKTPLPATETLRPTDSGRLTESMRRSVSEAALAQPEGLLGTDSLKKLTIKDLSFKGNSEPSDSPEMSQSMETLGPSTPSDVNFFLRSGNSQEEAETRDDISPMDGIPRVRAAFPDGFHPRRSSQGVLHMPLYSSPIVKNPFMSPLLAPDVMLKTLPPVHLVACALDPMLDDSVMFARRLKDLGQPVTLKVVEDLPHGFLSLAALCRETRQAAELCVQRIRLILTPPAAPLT
Assay: Indirect NAG assay (extinction increase at 481 nm)
Type: biochemical
Procedure: A typical reaction is carried out at 30° C. for 60 min, for example in 1.5 ml Eppendorf vessels or 96-hole plates. […] 180 μl of the substrate solution (20 μg/ml of phosphatidylcholine, 10 μg/ml of phosphatidylinositol, 50 μg/ml of NAG in assay buffer) are added. After a preincubation for 15 min at 30° C., 20 μl of HSL in assay buffer are pipetted in and the extinction is immediately measured (see above) at 481 nm in a cuvette photometer (0.5 ml cuvette) or microtiter plate reader. After a certain incubation time, which is variable and depends on the chosen enzyme concentration and can be between 2 and 240 minutes, in this case incubation at 30° C. for 60 min, the extinction is measured again. The increase in the extinction in the yellow region, in this case at 481 nm, is a measure of the enzyme activity.
Isolated rat fat cells are obtained from epididymal fatty tissue from untreated male rats (Wistar, 220-250 g) by collagenase treatment according to published processes. The fat cells from 10 rats are washed three times by flotation with 50 ml each of homogenization buffer ([…], pH 7.4, 0.25 M sucrose, 1 mM ethylenediamine-N,N,N′,N′-tetraacetic acid (EDTA), 1 mM dithiothreitol (DTT), 10 μg/ml of leupeptin, 10 μg/ml of antipain, 20 μg/ml of pepstatin) and finally taken up in 10 ml of homogenization buffer. The fat cells are homogenized in a Teflon-in-glass homogenizer (Braun-Melsungen) by 10 strokes at 1500 rpm and 15° C. The homogenizate is centrifuged (Sorvall SM24 tubes, 5000 rpm, 10 min, 4° C.). The […] between the overlying fatty layer and the pellet is removed and the centrifugation is repeated. The […] resulting from this is centrifuged again (Sorvall SM24 tubes, 20,000 rpm, 45 min, 4° C.). […] After incubation for 60 min at 4° C. (shake at intervals of 15 min), the batch is centrifuged (Sorvall SM24 tubes, 3000 rpm, 10 min, 4° C.). The supernatant is brought to pH 5.2 by addition of glacial acetic acid and incubated at 4° C. for 30 min. […] The suspension is dialyzed overnight at 4° C. against 25 mM TRIS/HCl, pH 7.4, 50% glycerol, 1 mM DTT, and 10 μg/ml of leupeptin, pepstatin, and antipain and then applied to a hydroxylapatite column (0.1 g per 1 ml of suspension, equilibrated with 10 mM potassium phosphate, pH 7.0, 30% glycerol, 1 mM DTT). The column is washed with four volumes of equilibration buffer at a flow rate of 20 to 30 ml/h. The HSL is eluted with a volume of equilibration buffer which contains 0.5 M potassium phosphate, then dialyzed (see above) and concentrated 5 to 10 times by ultrafiltration (Amicon Diaflo PM 10 filter) at 4° C. The partially purified HSL can be stored at −70° C. for 4 to 6 weeks.
6 mg of phosphatidylcholine and 6 mg of phosphatidylinositol are dissolved in 1 ml of chloroform each. 10 mg of NAG are dissolved in 1 ml of chloroform. […] The chloroform (225 μl total volume) is completely removed by overblowing with a stream of N2. The dried substrate can be stored at 4° C. for up to three days. For the preparation of the phospholipid vesicles/micelles having intercalated NAG (on the test day), the dried substrate is taken up in 20 ml of assay buffer (25 mM TRIS/HCl, pH 7.4; 150 mM NaCl) and two ultrasonic treatments with an ultrasonic probe (Branson Sonifier type 11, standard microtip): 1st treatment setting 2, 2×1 min, in between in each case 1 min on ice; 2nd treatment setting 4, 2×1 min, in between in each case 1 min on ice. […] Before use as a substrate (within the next 2 h), the solution is additionally incubated on ice for 15 min.
The assay is carried out at 30° C. for 60 min in 1.5 ml Eppendorf vessels or 96-hole plates.

For `O=C(CCCCCCCCCCCNc1ccc([N+](=O)[O-])c2nonc12)OCC(O)CO` (racemic) [Compound 3], the IC50 was 1520 nM and 2140 nM.
